In brackets after ≈: the same amount, converted by molar mass. Several values for one entry are separate records, joined by “and”; a condition that tells them apart may be missing. Equal entries are not always repeated.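 Protocol summary: plate cells (96-well), add compound at 5 concentrations, incubate 48 h, interpolate endpoints linearly. Here, GI50 denotes the concentration required for 50% inhibition of growth. The concentration for full growth arrest is given as TGI.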
Legend:
Assay in all cases: inhibition of tumour cell growth, NCI panel, 48 h
786-0 renal = tested on: 786-0 renal
A498 renal = tested on: A498 renal
A549 NSCLC = tested on: A549 NSCLC
ACHN renal = tested on: ACHN renal
BT-549 breast = tested on: BT-549 breast
CAKI-1 renal = tested on: CAKI-1 renal
CCRF-CEM leukemia = tested on: CCRF-CEM leukemia
COLO 205 colon = tested on: COLO 205 colon
DU-145 prostate = tested on: DU-145 prostate
EKVX NSCLC = tested on: EKVX NSCLC
HCC-2998 colon = tested on: HCC-2998 colon
HCT-116 colon = tested on: HCT-116 colon
HCT-15 colon = tested on: HCT-15 colon
HL-60(TB) leukemia = tested on: HL-60(TB) leukemia
HOP-62 NSCLC = tested on: HOP-62 NSCLC
HOP-92 NSCLC = tested on: HOP-92 NSCLC
HS 578T breast = tested on: HS 578T breast
HT29 colon = tested on: HT29 colon
IGROV1 ovarian = tested on: IGROV1 ovarian
K-562 leukemia = tested on: K-562 leukemia
KM12 colon = tested on: KM12 colon
LOX IMVI melanoma = tested on: LOX IMVI melanoma
M14 melanoma = tested on: M14 melanoma
MALME-3M melanoma = tested on: MALME-3M melanoma
MCF7 breast = tested on: MCF7 breast
MDA-MB-231 breast = tested on: MDA-MB-231 breast
MDA-MB-435 = tested on: MDA-MB-435
MOLT-4 leukemia = tested on: MOLT-4 leukemia
NCI-H226 lung = tested on: NCI-H226 lung
NCI-H23 lung = tested on: NCI-H23 lung
NCI-H460 lung = tested on: NCI-H460 lung
NCI-H522 lung = tested on: NCI-H522 lung
NCI/ADR-RES ovarian = tested on: NCI/ADR-RES ovarian
OVCAR-3 ovarian = tested on: OVCAR-3 ovarian
OVCAR-4 ovarian = tested on: OVCAR-4 ovarian
OVCAR-5 ovarian = tested on: OVCAR-5 ovarian
OVCAR-8 ovarian = tested on: OVCAR-8 ovarian
PC-3 prostate = tested on: PC-3 prostate
RPMI-8226 leukemia = tested on: RPMI-8226 leukemia
RXF 393 renal = tested on: RXF 393 renal
SF-268 CNS = tested on: SF-268 CNS
SF-295 CNS = tested on: SF-295 CNS
SF-539 CNS = tested on: SF-539 CNS
SK-MEL-2 melanoma = tested on: SK-MEL-2 melanoma
SK-MEL-28 melanoma = tested on: SK-MEL-28 melanoma
SK-MEL-5 melanoma = tested on: SK-MEL-5 melanoma
SK-OV-3 ovarian = tested on: SK-OV-3 ovarian
SN12C renal = tested on: SN12C renal
SNB-19 CNS = tested on: SNB-19 CNS
SNB-75 CNS = tested on: SNB-75 CNS
SR leukemia = tested on: SR leukemia
SW-620 colon = tested on: SW-620 colon
T-47D breast = tested on: T-47D breast
TK-10 renal = tested on: TK-10 renal
U251 CNS = tested on: U251 CNS
UACC-257 melanoma = tested on: UACC-257 melanoma
UACC-62 melanoma = tested on: UACC-62 melanoma
UO-31 renal = tested on: UO-31 renal

With CC(CCC/C=C/CCCN(C)C(=N)N)CC(C)C1OC(=O)C(C)C(O)/C=C/C(C)C(O)C(C)C(O)C(C)C(O)CCCC(O)CC2(O)OC(CC(OC(=O)CC(=O)O)CC(O)CC(O)C(C)C(O)/C=C/C=C/C1C)CC(O)C2O (stereo unspecified) the GI50 (786-0 renal) was 2.8 µM and 5.3 µg/mL, the TGI (786-0 renal) was 7.6 µM and 17.5 µg/mL and the GI50 (A498 renal) was 2.44 µM and 10.6 µg/mL. The TGI (A498 renal) was 7.16 µM and 21.3 µg/mL, the GI50 (A549 NSCLC) was 2.45 µM and 4.42 µg/mL and the TGI (A549 NSCLC) was 5.63 µM and 16.8 µg/mL. The GI50 (ACHN renal) was 2 µM and 5.72 µg/mL, the TGI (ACHN renal) was 4.31 µM and 20.6 µg/mL and the GI50 (BT-549 breast) was 2.19 µM and 3.16 µg/mL. The TGI (BT-549 breast) was 4.03 µM and 12 µg/mL, the GI50 (CAKI-1 renal) was 2.01 µM and 7.96 µg/mL and the TGI (CAKI-1 renal) was 5.24 µM and 17.7 µg/mL. The GI50 (CCRF-CEM leukemia) was 2.7 µM, the TGI (CCRF-CEM leukemia) was 11 µM and the GI50 (COLO 205 colon) was 1.75 µM and 2.42 µg/mL. For the same compound, the TGI (COLO 205 colon) was 3.33 µM and 10.6 µg/mL, the GI50 (DU-145 prostate) was 2.22 µM and 6.85 µg/mL and the TGI (DU-145 prostate) was 4.71 µM and 16 µg/mL. The GI50 (EKVX NSCLC) was 3.41 µM and 6.84 µg/mL, the TGI (EKVX NSCLC) was 12.6 µM and 16.8 µg/mL and the GI50 (HCC-2998 colon) was 3.18 µM and 10.9 µg/mL. For the same compound, the TGI (HCC-2998 colon) was 12.1 µM and 23.4 µg/mL, the GI50 (HCT-116 colon) was 2.52 µM and 9.15 µg/mL and the TGI (HCT-116 colon) was 6.13 µM and 24.4 µg/mL. For the same compound, the GI50 (HCT-15 colon) was 2.35 µM and 11.9 µg/mL, the TGI (HCT-15 colon) was 5.33 µM and 28.9 µg/mL and the GI50 (HL-60(TB) leukemia) was 6.5 µg/mL (≈ 5.69 µM). For the same compound, the TGI (HL-60(TB) leukemia) was 21.2 µg/mL (≈ 18.6 µM), the GI50 (HOP-62 NSCLC) was 4.29 µM and 10.5 µg/mL and the TGI (HOP-62 NSCLC) was 17.1 µM and 21.6 µg/mL. The GI50 (HOP-92 NSCLC) was 1.92 µM and 9.74 µg/mL, the TGI (HOP-92 NSCLC) was 6.57 µM and 20.1 µg/mL and the GI50 (HS 578T breast) was 2.56 µM and 2.5 µg/mL. The TGI (HS 578T breast) was 7.84 µM and 12.9 µg/mL, the GI50 (HT29 colon) was 1.76 µM and 3 µg/mL and the TGI (HT29 colon) was 3.41 µM and 11.7 µg/mL. For the same compound, the GI50 (IGROV1 ovarian) was 2.51 µM and 3.12 µg/mL, the TGI (IGROV1 ovarian) was 5.01 µM and 12.4 µg/mL and the GI50 (K-562 leukemia) was 3.13 µM and 10.4 µg/mL. For the same compound, the TGI (K-562 leukemia) was 7.16 µM and 75 µg/mL, the GI50 (KM12 colon) was 1.88 µM and 2.62 µg/mL and the TGI (KM12 colon) was 3.37 µM and 9.79 µg/mL. The GI50 (LOX IMVI melanoma) was 3.17 µM and 12 µg/mL, the TGI (LOX IMVI melanoma) was 11.3 µM and 29 µg/mL and the GI50 (M14 melanoma) was 2.51 µM and 9.44 µg/mL. The TGI (M14 melanoma) was 6.32 µM and 23.9 µg/mL, the GI50 (MALME-3M melanoma) was 2.37 µM and 2.57 µg/mL and the TGI (MALME-3M melanoma) was 5 µM and 11.7 µg/mL. For the same compound, the GI50 (MCF7 breast) was 1.79 µM and 3.53 µg/mL, the TGI (MCF7 breast) was 3.67 µM and 14 µg/mL and the GI50 (MDA-MB-231 breast) was 5.59 µM and 8.55 µg/mL. For the same compound, the TGI (MDA-MB-231 breast) was 19 µM and 19.9 µg/mL, the GI50 (MDA-MB-435) was 1.9 µM and 2.45 µg/mL and the TGI (MDA-MB-435) was 4.39 µM and 9.24 µg/mL. The GI50 (MOLT-4 leukemia) was 2.78 µM and 11.1 µg/mL, the TGI (MOLT-4 leukemia) was 5.88 µM and 28.4 µg/mL and the GI50 (NCI-H226 lung) was 6.21 µM and 14.1 µg/mL. For the same compound, the TGI (NCI-H226 lung) was 24.2 µM and 26.9 µg/mL, the GI50 (NCI-H23 lung) was 5.99 µM and 13.7 µg/mL and the TGI (NCI-H23 lung) was 20.8 µM and 29.4 µg/mL. For the same compound, the GI50 (NCI-H460 lung) was 2.09 µM and 3.95 µg/mL, the TGI (NCI-H460 lung) was 3.95 µM and 14.5 µg/mL and the GI50 (NCI-H522 lung) was 2.38 µM and 2.79 µg/mL. For the same compound, the TGI (NCI-H522 lung) was 10.5 µM and 12.9 µg/mL, the GI50 (NCI/ADR-RES ovarian) was 5.99 µM and 15.9 µg/mL and the TGI (NCI/ADR-RES ovarian) was 20.4 µM and 34.3 µg/mL. The GI50 (OVCAR-3 ovarian) was 1.92 µM and 5.68 µg/mL, the TGI (OVCAR-3 ovarian) was 3.42 µM and 15.1 µg/mL and the GI50 (OVCAR-4 ovarian) was 2.65 µM and 7.59 µg/mL. For the same compound, the TGI (OVCAR-4 ovarian) was 6.66 µM and 18.4 µg/mL, the GI50 (OVCAR-5 ovarian) was 14.4 µM and 13.5 µg/mL and the TGI (OVCAR-5 ovarian) was 29.9 µM and 26.1 µg/mL. For the same compound, the GI50 (OVCAR-8 ovarian) was 2.54 µM and 7.93 µg/mL, the TGI (OVCAR-8 ovarian) was 5.88 µM and 19.8 µg/mL and the GI50 (PC-3 prostate) was 3.09 µM and 4.86 µg/mL. For the same compound, the TGI (PC-3 prostate) was 11.5 µM and 16 µg/mL, the GI50 (RPMI-8226 leukemia) was 2.71 µM and 9.09 µg/mL and the TGI (RPMI-8226 leukemia) was 10.5 µM and 28 µg/mL. For the same compound, the GI50 (RXF 393 renal) was 1.98 µM and 1.89 µg/mL, the TGI (RXF 393 renal) was 3.71 µM and 4.59 µg/mL and the GI50 (SF-268 CNS) was 2.76 µM and 6.7 µg/mL. For the same compound, the TGI (SF-268 CNS) was 7.24 µM and 16.5 µg/mL, the GI50 (SF-295 CNS) was 4.16 µM and 11.7 µg/mL and the TGI (SF-295 CNS) was 17 µM and 22.5 µg/mL. The GI50 (SF-539 CNS) was 1.73 µM and 2.67 µg/mL, the TGI (SF-539 CNS) was 3.64 µM and 12.5 µg/mL and the GI50 (SK-MEL-2 melanoma) was 7.22 µM and 10.2 µg/mL. The TGI (SK-MEL-2 melanoma) was 23 µM and 20.5 µg/mL, the GI50 (SK-MEL-28 melanoma) was 2.04 µM and 2.59 µg/mL and the TGI (SK-MEL-28 melanoma) was 4.05 µM and 8.56 µg/mL. For the same compound, the GI50 (SK-MEL-5 melanoma) was 1.75 µM and 1.48 µg/mL, the TGI (SK-MEL-5 melanoma) was 3.18 µM and 3.33 µg/mL and the GI50 (SK-OV-3 ovarian) was 3 µM and 9.08 µg/mL. For the same compound, the TGI (SK-OV-3 ovarian) was 11.7 µM and 18.5 µg/mL, the GI50 (SN12C renal) was 2.22 µM and 2.78 µg/mL and the TGI (SN12C renal) was 4.97 µM and 12 µg/mL. The GI50 (SNB-19 CNS) was 4.9 µM and 10.1 µg/mL, the TGI (SNB-19 CNS) was 17 µM and 21.8 µg/mL and the GI50 (SNB-75 CNS) was 2.05 µM and 1.34 µg/mL. The TGI (SNB-75 CNS) was 4.94 µM and 7.44 µg/mL, the GI50 (SR leukemia) was 2.59 µM and 3.67 µg/mL and the TGI (SR leukemia) was 4.88 µM and 47 µg/mL. The GI50 (SW-620 colon) was 2.02 µM and 9.83 µg/mL, the TGI (SW-620 colon) was 3.7 µM and 21.7 µg/mL and the GI50 (T-47D breast) was 1.81 µM and 2.63 µg/mL. For the same compound, the TGI (T-47D breast) was 4.44 µM and 11.9 µg/mL, the GI50 (TK-10 renal) was 1.98 µM and 10.3 µg/mL and the TGI (TK-10 renal) was 4.17 µM and 21.4 µg/mL. The GI50 (U251 CNS) was 3.37 µM and 3.3 µg/mL, the TGI (U251 CNS) was 11.6 µM and 14.9 µg/mL and the GI50 (UACC-257 melanoma) was 2.16 µM and 1.98 µg/mL. The TGI (UACC-257 melanoma) was 4.29 µM and 6.29 µg/mL, the GI50 (UACC-62 melanoma) was 2.13 µM and 8.05 µg/mL and the TGI (UACC-62 melanoma) was 4.52 µM and 19.1 µg/mL. The GI50 (UO-31 renal) was 3.36 µM and 14.5 µg/mL and the TGI (UO-31 renal) was 8.6 µM and 26.1 µg/mL.
